In PubChem BioAssay (NCI):
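Values below derive from 48-hour exposures of cells grown in 96-well plates, with endpoints linearly interpolated between the two concentrations bracketing the appropriate inhibition level. GI50 = concentration required for 50% inhibition of growth. TGI is the concentration that stops growth completely.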

Assays:
Assay in all cases: DTP human tumour cell line panel, 48 h
786-0 renal = test system: 786-0 renal
A498 renal = test system: A498 renal
A549 NSCLC = test system: A549 NSCLC
ACHN renal = test system: ACHN renal
BT-549 breast = test system: BT-549 breast
CAKI-1 renal = test system: CAKI-1 renal
CCRF-CEM leukemia = test system: CCRF-CEM leukemia
COLO 205 colon = test system: COLO 205 colon
DU-145 prostate = test system: DU-145 prostate
EKVX NSCLC = test system: EKVX NSCLC
HCC-2998 colon = test system: HCC-2998 colon
HCT-116 colon = test system: HCT-116 colon
HCT-15 colon = test system: HCT-15 colon
HL-60(TB) leukemia = test system: HL-60(TB) leukemia
HOP-62 NSCLC = test system: HOP-62 NSCLC
HOP-92 NSCLC = test system: HOP-92 NSCLC
HS 578T breast = test system: HS 578T breast
HT29 colon = test system: HT29 colon
IGROV1 ovarian = test system: IGROV1 ovarian
K-562 leukemia = test system: K-562 leukemia
KM12 colon = test system: KM12 colon
LOX IMVI melanoma = test system: LOX IMVI melanoma
M14 melanoma = test system: M14 melanoma
MALME-3M melanoma = test system: MALME-3M melanoma
MCF7 breast = test system: MCF7 breast
MDA-MB-231 breast = test system: MDA-MB-231 breast
MDA-MB-435 = test system: MDA-MB-435
NCI-H226 lung = test system: NCI-H226 lung
NCI-H23 lung = test system: NCI-H23 lung
NCI-H460 lung = test system: NCI-H460 lung
NCI-H522 lung = test system: NCI-H522 lung
OVCAR-3 ovarian = test system: OVCAR-3 ovarian
OVCAR-4 ovarian = test system: OVCAR-4 ovarian
OVCAR-5 ovarian = test system: OVCAR-5 ovarian
PC-3 prostate = test system: PC-3 prostate
RXF 393 renal = test system: RXF 393 renal
SF-268 CNS = test system: SF-268 CNS
SF-295 CNS = test system: SF-295 CNS
SF-539 CNS = test system: SF-539 CNS
SK-MEL-2 melanoma = test system: SK-MEL-2 melanoma
SK-MEL-28 melanoma = test system: SK-MEL-28 melanoma
SK-MEL-5 melanoma = test system: SK-MEL-5 melanoma
SN12C renal = test system: SN12C renal
SNB-19 CNS = test system: SNB-19 CNS
SNB-75 CNS = test system: SNB-75 CNS
SW-620 colon = test system: SW-620 colon
TK-10 renal = test system: TK-10 renal
UACC-257 melanoma = test system: UACC-257 melanoma
UACC-62 melanoma = test system: UACC-62 melanoma
UO-31 renal = test system: UO-31 renal

`CNCCCNc1nc2ccccc2c2c(=O)c3cc(F)ccc3sc12` showed a GI50 (786-0 renal) of 1.44 µM, a TGI (786-0 renal) of 2.87 µM and a GI50 (A498 renal) of 1.35 µM. For the same molecule, the TGI (A498 renal) was 2.7 µM, the GI50 (A549 NSCLC) was 1.66 µM and the TGI (A549 NSCLC) was 3.61 µM. The GI50 (ACHN renal) was 1.49 µM, the TGI (ACHN renal) was 2.81 µM and the GI50 (BT-549 breast) was 1.79 µM. It also gave a TGI (BT-549 breast) of 3.32 µM, a GI50 (CAKI-1 renal) of 1.48 µM and a TGI (CAKI-1 renal) of 2.8 µM. It also gave a GI50 (CCRF-CEM leukemia) of 1.8 µM, a TGI (CCRF-CEM leukemia) of 4.34 µM and a GI50 (COLO 205 colon) of 1.77 µM. For the same molecule, the TGI (COLO 205 colon) was 3.78 µM, the GI50 (DU-145 prostate) was 1.66 µM and the TGI (DU-145 prostate) was 3.03 µM. It also gave a GI50 (EKVX NSCLC) of 1.55 µM, a TGI (EKVX NSCLC) of 2.94 µM and a GI50 (HCC-2998 colon) of 1.68 µM. It also gave a TGI (HCC-2998 colon) of 3.29 µM, a GI50 (HCT-116 colon) of 1.5 µM and a TGI (HCT-116 colon) of 2.92 µM. The GI50 (HCT-15 colon) was 1.42 µM, the TGI (HCT-15 colon) was 2.76 µM and the GI50 (HL-60(TB) leukemia) was 1.81 µM. It also gave a TGI (HL-60(TB) leukemia) of 3.69 µM, a GI50 (HOP-62 NSCLC) of 1.5 µM and a TGI (HOP-62 NSCLC) of 3.23 µM. It also gave a GI50 (HOP-92 NSCLC) of 1.02 µM, a TGI (HOP-92 NSCLC) of 2.42 µM and a GI50 (HS 578T breast) of 1.45 µM. It also gave a TGI (HS 578T breast) of 3.11 µM, a GI50 (HT29 colon) of 1.65 µM and a TGI (HT29 colon) of 3.45 µM. The GI50 (IGROV1 ovarian) was 1.37 µM, the TGI (IGROV1 ovarian) was 2.76 µM and the GI50 (K-562 leukemia) was 1.9 µM. It also gave a TGI (K-562 leukemia) of 5.08 µM, a GI50 (KM12 colon) of 1.63 µM and a TGI (KM12 colon) of 3.1 µM. For the same molecule, the GI50 (LOX IMVI melanoma) was 1.47 µM, the TGI (LOX IMVI melanoma) was 2.8 µM and the GI50 (M14 melanoma) was 1.72 µM. It also gave a TGI (M14 melanoma) of 3.22 µM, a GI50 (MALME-3M melanoma) of 1.55 µM and a TGI (MALME-3M melanoma) of 3.01 µM. The GI50 (MCF7 breast) was 1.41 µM, the TGI (MCF7 breast) was 2.95 µM and the GI50 (MDA-MB-231 breast) was 1.33 µM. For the same molecule, the TGI (MDA-MB-231 breast) was 2.7 µM, the GI50 (MDA-MB-435) was 1.59 µM and the TGI (MDA-MB-435) was 2.94 µM. The GI50 (NCI-H226 lung) was 1.72 µM, the TGI (NCI-H226 lung) was 3.28 µM and the GI50 (NCI-H23 lung) was 1.69 µM. For the same molecule, the TGI (NCI-H23 lung) was 3.15 µM, the GI50 (NCI-H460 lung) was 1.38 µM and the TGI (NCI-H460 lung) was 2.67 µM. It also gave a GI50 (NCI-H522 lung) of 1.86 µM, a TGI (NCI-H522 lung) of 3.73 µM and a GI50 (OVCAR-3 ovarian) of 1.56 µM. It also gave a TGI (OVCAR-3 ovarian) of 2.95 µM, a GI50 (OVCAR-4 ovarian) of 1.69 µM and a TGI (OVCAR-4 ovarian) of 3.25 µM. The GI50 (OVCAR-5 ovarian) was 1.62 µM, the TGI (OVCAR-5 ovarian) was 3.03 µM and the GI50 (PC-3 prostate) was 1.64 µM. For the same molecule, the TGI (PC-3 prostate) was 3.25 µM, the GI50 (RXF 393 renal) was 1.34 µM and the TGI (RXF 393 renal) was 2.75 µM. The GI50 (SF-268 CNS) was 1.47 µM, the TGI (SF-268 CNS) was 2.99 µM and the GI50 (SF-295 CNS) was 1.81 µM. It also gave a TGI (SF-295 CNS) of 3.23 µM, a GI50 (SF-539 CNS) of 1.74 µM and a TGI (SF-539 CNS) of 3.16 µM. It also gave a GI50 (SK-MEL-2 melanoma) of 1.94 µM, a TGI (SK-MEL-2 melanoma) of 3.65 µM and a GI50 (SK-MEL-28 melanoma) of 1.83 µM. The TGI (SK-MEL-28 melanoma) was 3.25 µM, the GI50 (SK-MEL-5 melanoma) was 1.69 µM and the TGI (SK-MEL-5 melanoma) was 3.07 µM. The GI50 (SN12C renal) was 1.61 µM, the TGI (SN12C renal) was 3.05 µM and the GI50 (SNB-19 CNS) was 1.65 µM. For the same molecule, the TGI (SNB-19 CNS) was 3.11 µM, the GI50 (SNB-75 CNS) was 1.41 µM and the TGI (SNB-75 CNS) was 2.76 µM. The GI50 (SW-620 colon) was 1.48 µM, the TGI (SW-620 colon) was 2.85 µM and the GI50 (TK-10 renal) was 1.8 µM. The TGI (TK-10 renal) was 3.41 µM, the GI50 (UACC-257 melanoma) was 1.92 µM and the TGI (UACC-257 melanoma) was 3.74 µM. For the same molecule, the GI50 (UACC-62 melanoma) was 1.76 µM, the TGI (UACC-62 melanoma) was 3.17 µM and the GI50 (UO-31 renal) was 1.31 µM. For the same molecule, the TGI (UO-31 renal) was 2.58 µM.
